30 compounds from patent US7432276B2, “ABCA1 elevating compounds” (CV Therapeutics, Inc., priority 2005, dated 2008) can be followed below.

In this assay the test system is ABCA1 mRNA. The assay is described as follows: ABCA1 mRNA induction in THP-1 cells, QuantiGene branched DNA assay. In kind it is cell-based. The settings on record: 10 μM test compound, 18-20 hours; for fold induction at 10 µM: Homo sapiens, read-out: ABCA1 Induction Fold Increase over DMSO Vehicle. In outline: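 THP-1 cells, grown to subconfluence, treated with compounds at 10 and 3 μM in DMEM/BSA for 18–20 h. Lysates hybridized with ABCA1-specific probe 16–18 h at 53 °C; QuantiGene branched DNA luminescence gives fold increase over DMSO.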

With `COc1ccc(Br)c2c1OC[C@@H]1[C@H]2Nc2ccc(C(O)(C(F)(F)F)C(F)(F)F)cc2C1(C)C` [Number 64, 2-((6aS,12aR)-1-bromo-4-methoxy-7,7-dimethyl(7,12,12a,6a-tetrahydrochromano[4,3-b]quinolin-9-yl))-1,1,1,3,3,3-hexafluoropropan-2-ol], the “ABCA1 Induction Fold Increase over DMSO Vehicle” value (shortened to “ABCA1 Induction Fold Increase”) was 2.5 FOLD INCREASE. On to `CC1(C)c2cc(CC(=O)O)ccc2NC2c3cc(Br)ccc3OCC21` (stereo not drawn) [Number 4, 2-(2-bromo-7,7-dimethyl-7,12,12a,6a-tetrahydrochromano[4,3-b]quinolin-9-yl)acetic acid], for which the “ABCA1 Induction Fold Increase” value is given as 2.1 FOLD INCREASE. With `COc1cccc2c1[C@H]1Nc3ccc(-c4ccc(F)cc4)cc3C(C)(C)[C@H]1CO2` [Number 109, (12aS,6aR)-9-(4-fluorophenyl)-1-methoxy-7,7-dimethyl-7,12,12a,6a-tetrahydrochromano[4,3-b]quinoline], the “ABCA1 Induction Fold Increase” value stood at 4.1 FOLD INCREASE.

Regarding `CCOc1ccc2c(c1)C(C)(C)C1COc3c(OC)ccc(Br)c3C1N2` (stereo not drawn) [Number 78, 1-bromo-9-ethoxy-4-methoxy-7,7-dimethyl-7,12,12a,6a-tetrahydrochromano[4,3-b]quinoline], the “ABCA1 Induction Fold Increase” value is 2.7 FOLD INCREASE.

As for `CC1(C)c2cc(C(O)(C(F)(F)F)C(F)(F)F)ccc2NC2c3cc(F)cc(F)c3OCC21` (stereo not drawn) [Number 67, 2-(2,4-difluoro-7,7-dimethyl(7,12,12a,6a-tetrahydrochromano[4,3-b]quinolin-9-yl))-1,1,1,3,3,3-hexafluoropropan-2-ol], the “ABCA1 Induction Fold Increase” value amounted to 3.3 FOLD INCREASE. For `COc1cccc2c1C1Nc3ccc(C(N)=O)cc3C(C)(C)C1CO2` (stereo not drawn) [Number 45, 1-methoxy-7,7-dimethyl-7,12,12a,6a-tetrahydrochromano[4,3-b]quinoline-9-carboxamide], the “ABCA1 Induction Fold Increase” value came out at 4.9 FOLD INCREASE. For `COc1cccc2c1[C@H]1Nc3ccc(C(=O)N4CCS(=O)(=O)CC4)cc3C(C)(C)[C@H]1CO2` [Number 121, ((6aR,12aS)-6a,7,12,12a-tetrahydro-1-methoxy-7,7-dimethyl-6H-chromeno[4,3-b]quinolin-9-yl)(1,1-dione-1,4-thiazaperhydroin-yl)methanone], the “ABCA1 Induction Fold Increase” value came out at 3.2 FOLD INCREASE. Still for that read-out and setting: under `CC(C)=CCOc1cccc2c1OCC1C2Nc2ccc(C(O)(C(F)(F)F)C(F)(F)F)cc2C1(C)C` (stereo not drawn) [Number 25, 2-[7,7-dimethyl-4-(3-methylbut-2-enyloxy)(7,12,12a,6a-tetrahydrochromano[4,3-b]quinolin-9-yl)]-1,1,1,3,3,3-hexafluoropropan-2-ol] stands 4.0 FOLD INCREASE; under `CC1(C)c2cc(C(N)=O)ccc2NC2c3cc(Br)ccc3OCC21` (stereo not drawn) [Number 5, 2-bromo-7,7-dimethyl-7,12,12a,6a-tetrahydrochromano[4,3-b]quinoline-9-carboxamide], 3.5 FOLD INCREASE; under `CC1(C)c2cc(C(O)(C(F)(F)F)C(F)(F)F)ccc2N[C@@H]2c3cc(Br)ccc3OC[C@H]21` [Number 3, 2-((12aS,6aS)-2-bromo-7,7-dimethyl(7,12,12a,6a-tetrahydrochromano[4,3-b]quinolin-9-yl))-1,1,1,3,3,3-hexafluoropropan-2-ol], 3.0 FOLD INCREASE. For the compound `CCOP(=O)(Cc1ccc2c(c1)C(C)(C)[C@H]1COc3c(OC)cc(Br)cc3[C@H]1N2)OCC` [Number 168, diethyl ((6aR,12aS)-2-bromo-6a,7,12,12a-tetrahydro-4-methoxy-7,7-dimethyl-6H-chromeno[4,3-b]quinolin-9-yl)methylphosphonate], the fold induction at 10 µM is 4. For `CCOP(=O)(Cc1ccc2c(c1)C(C)(C)C1COc3c(OC)cc(Cl)cc3C1N2)OCC` (stereo not drawn) [Number 91, [(2-chloro-4-methoxy-7,7-dimethyl(7,12,12a,6a-tetrahydrochromano[4,3-b]quinolin-9-yl))methyl]diethoxyphosphino-1-one], the “ABCA1 Induction Fold Increase” value was 6.2 FOLD INCREASE. Same read-out and setting: under `COc1ccc(Br)c2c1OCC1C2Nc2ccc(-c3cnco3)cc2C1(C)C` (stereo not drawn) [Number 79, 1-bromo-4-methoxy-7,7-dimethyl-9-(1,3-oxazol-5-yl)-7,12,12a,6a-tetrahydrochromano[4,3-b]quinoline] stands 4.1 FOLD INCREASE. Turning to `CC1(C)c2cc(-c3nc(C(=O)O)co3)ccc2N[C@@H]2c3c(F)cccc3OC[C@@H]21` [Number 131, 2-((6aR,12aS)-1-fluoro-6a,7,12,12a-tetrahydro-7,7-dimethyl-6H-chromeno[4,3-b]quinolin-9-yl)oxazole-4-carboxylic acid], the fold induction at 10 µM turned out to be 2. On to `COc1cccc2c1C1Nc3ccc(C(C)=O)cc3C(C)(C)C1CO2` (stereo not drawn) [Number 43, 1-(1-methoxy-7,7-dimethyl-7,12,12a,6a-tetrahydrochromano[4,3-b]quinolin-9-yl)ethan-1-one], for which the “ABCA1 Induction Fold Increase” value amounted to 4.1 FOLD INCREASE. On the same count and under the same terms, the figure for `CNS(=O)(=O)Cc1ccc2c(c1)C(C)(C)C1COc3cccc(OC)c3C1N2` (stereo not drawn) [Number 89, {[(1-methoxy-7,7-dimethyl(7,12,12a,6a-tetrahydrochromano[4,3-b]quinolin-9-yl))methyl]sulfonyl}methylamine] is 6.4 FOLD INCREASE. For the compound `COC(=O)c1ccc2c(c1)C(C)(C)[C@H]1COc3c(OC)cc(-c4cn[nH]c4)cc3[C@H]1N2` [Number 161, (6aR,12aS)-methyl 6a,7,12,12a-tetrahydro-4-methoxy-7,7-dimethyl-2-(1H-pyrazol-4-yl)-6H-chromeno[4,3-b]quinoline-9-carboxylate], the fold induction at 10 µM worked out at 8.1.

`COc1cccc2c1[C@H]1Nc3ccc(S(=O)(=O)CC(=O)O)cc3C(C)(C)[C@H]1CO2` [Number 124, 2-((6aR,12aS)-6a,7,12,12a-tetrahydro-1-methoxy-7,7-dimethyl-6H-chromeno[4,3-b]quinolin-9-ylsulfonyl)acetic acid]: the fold induction at 10 µM was determined as 3.3. Consider `COc1ccccc1-c1ccc2c(c1)C(C)(C)C1COc3c(OC)cc(Cl)cc3C1N2` (stereo not drawn) [Number 100, 1-(2-chloro-4-methoxy-7,7-dimethyl(7,12,12a,6a-tetrahydrochromano[4,3-b]quinolin-9-yl))-2-methoxybenzene], for which the “ABCA1 Induction Fold Increase” value came out at 3.0 FOLD INCREASE. Take `COc1cccc2c1OCC1C2Nc2ccc(-c3cccc(C(=O)OC(C)C)c3)cc2C1(C)C` (stereo not drawn) [Number 60, methylethyl 3-(4-methoxy-7,7-dimethyl-7,12,12a,6a-tetrahydrochromano[4,3-b]quinolin-9-yl)benzoate]: the “ABCA1 Induction Fold Increase” value worked out at 4.4 FOLD INCREASE. Regarding `COC(=O)CCc1ccc2c(c1)C1Nc3ccc(C(O)(C(F)(F)F)C(F)(F)F)cc3C(C)(C)C1CO2` (stereo not drawn) [Number 40, methyl 3-{7,7-dimethyl-9-[2,2,2-trifluoro-1-hydroxy-1-(trifluoromethyl)ethyl]-7,12,12a,6a-tetrahydrochromano[4,3-b]quinolin-2-yl}propanoate], the “ABCA1 Induction Fold Increase” value was determined as 2.1 FOLD INCREASE.

As for `COc1cccc2c1[C@H]1Nc3ccccc3C(C)(C)[C@H]1CO2` [Number 53, (12aS,6aR)-1-methoxy-7,7-dimethyl-7,12,12a,6a-tetrahydrochromano[4,3-b]quinoline], the “ABCA1 Induction Fold Increase” value is given as 3.5 FOLD INCREASE. Regarding `CC(C)=CCOC(=O)c1ccc2c(c1)C1Nc3ccc(B(O)O)cc3C(C)(C)C1CO2` (stereo not drawn) [Number 15, 3-methylbut-2-enyl 9-(dihydroxyboramethyl)-7,7-dimethyl-7,12,12a,6a-tetrahydrochromano[4,3-b]quinoline-2-carboxylate], the “ABCA1 Induction Fold Increase” value is 1.8 FOLD INCREASE.

Turning to `COc1cccc2c1[C@H]1Nc3ccc(S(C)(=O)=O)cc3C(C)(C)[C@H]1CO2` [Number 122, (6aR,12aS)-6a,7,12,12a-tetrahydro-1-methoxy-7,7-dimethyl-9-(methylsulfonyl)-6H-chromeno[4,3-b]quinoline], the fold induction at 10 µM was determined as 2.4. Consider `CCCN1c2ccccc2C(C)(C)[C@H]2COc3cccc(OC)c3[C@H]21` [Number 172, (6aR,12aS)-12-propyl-6a,7,12,12a-tetrahydro-1-methoxy-7,7-dimethyl-6H-chromeno[4,3-b]quinoline], for which the fold induction at 10 µM came to 1.7. As for `COc1cccc2c1[C@H]1Nc3ccc(C(=O)NCCO)cc3C(C)(C)[C@H]1CO2` [Number 117, (6aR,12aS)-6a,7,12,12a-tetrahydro-N-(2-hydroxyethyl)-1-methoxy-7,7-dimethyl-6H-chromeno[4,3-b]quinoline-9-carboxamide], the fold induction at 10 µM worked out at 8.6. On to `COC(=O)CCN1c2ccccc2C(C)(C)[C@H]2COc3cccc(OC)c3[C@@H]21` [Number 171, methyl 3-((6aR,12aR)-6a,7-dihydro-1-methoxy-7,7-dimethyl-6H-chromeno[4,3-b]quinolin-12(12aH)-yl)propanoate], for which the fold induction at 10 µM worked out at 2.2. As to `COc1cccc2c1[C@H]1Nc3ccc(Br)cc3C(C)(C)[C@H]1CO2` [Number 85, (12aS,6aR)-9-bromo-1-methoxy-7,7-dimethyl-7,12,12a,6a-tetrahydrochromano[4,3-b]quinoline], the “ABCA1 Induction Fold Increase” value came to 8.0 FOLD INCREASE.

Regarding `CC1(C)c2cc(C(O)(C(F)(F)F)C(F)(F)F)ccc2NC2c3cc(OC(F)(F)F)ccc3OCC21` (stereo not drawn) [Number 8, 2-[7,7-dimethyl-2-(trifluoromethoxy)(7,12,12a,6a-tetrahydrochromano[4,3-b]quinolin-9-yl)]-1,1,1,3,3,3-hexafluoropropan-2-ol], the “ABCA1 Induction Fold Increase” value amounted to 3.0 FOLD INCREASE. For `COc1cccc2c1[C@@H]1[C@H](CO2)C(C)(C)c2ccccc2N1C(C)C` [Number 155, (6aR,12aS)-6a,7,12,12a-tetrahydro-12-isopropyl-1-methoxy-7,7-dimethyl-6H-chromeno[4,3-b]quinoline], the fold induction at 10 µM came to 2.7.
